No end group written: not given here.
Key:
[1] = system: HLA-A24 molecule (product of the HLA-A*2402 gene); test: Experiment of binding peptide to HLA-A24 molecule (C1R-A24 cells, flow cytometry); set-up: species or system human; conditions: for Binding Experiment Data: -log Kd value (Kd in molar concentration), C1R-A24 cells
Procedure: The ability of a peptide to bind to an HLA-A24 molecule, which is a product of the HLA-A*2402 gene, was measured using C1R-A24 cells expressing the HLA-A24 molecule (cells prepared by Professor Masafumi Takiguchi, Kumamoto University being supplied with permission by Assistant Professor Masaki Yasukawa, Ehime University).
C1R-A24 cells were first exposed to acidic conditions at a pH of 3.3 for 30 seconds, thus dissociating and removing a light chain β2m, which is associated with HLA class I molecules in common, and an endogenous peptide originally bound to the HLA-A*2402 molecule. After neutralization, purified β2m was added to C1R-A24 cells, the obtained product was added to serial dilutions of a peptide, and incubated on ice for 4 hours. Staining was carried out using fluorescently labeled monoclonal antibody 17A12, which recognizes association (MHC-pep) of the three members, that is, HLA-A*2402 molecule, the peptide, and β2m, which had reassociated during the incubation.
Subsequently, the MHC-pep count per C1R-A24 cell (proportional to the strength of fluorescence of the above-mentioned fluorescent antibody) was quantitatively measured using an FACScan fluorescence-activated cell sorter (Becton Dickinson Biosciences). A binding dissociation constant Kd value between the HLA-A24 molecule and the peptide was calculated from the average strength of fluorescence per cell by a published method (Udaka et al., Immunogenetics, 51, 816-828, 2000).

[2] = target: HLA-A2 molecule (product of the HLA-A*0201 gene) (Homo sapiens, UniProt P04439, D140Y/D185E/D98H/E176V/E277Q/G131W/G231S/I119V/I121R/I166T/I218V/L300P/L318F/N151K/N90K/P208A/P217A/Q86G/Q94H/R138H/R169H/T345S); test: Experiment of binding peptide to HLA-A2 molecule (JY cells, flow cytometry); conditions: -log Kd value (Kd in molar concentration)
Procedure: JY cells were first exposed to acidic conditions at a pH of 3.8 for 30 seconds, thus dissociating and removing a light chain β2m and an endogenous peptide, which were noncovalently associated with the HLA-A*0201 molecule. After neutralization, a reassociation experiment was carried out.
The above-mentioned JY cells and the purified β2m were added to stepped dilutions of peptide for which the binding ability would be measured, and incubation was carried out on ice for 4 hours. HLA-A*0201 molecules that had reassociated up to this point were stained using the associating type specific fluorescently-labeled monoclonal antibody BB7.2.
Subsequently, the amount of fluorescence per cell was measured using a flow cytometer and a dissociation constant Kd value in molar concentration was calculated by a published method (Udaka et al., Immunogenetics, 51, 816-828, 2000).

Sequence: AFLSVKKQF [compound 2]
- binding to a human HLA-A type molecule (in words) [1]: experimentally confirmed to bind
- Binding Experiment Data ([1]; 9 amino acid peptides): 7.7283

Sequence: FLKDHRISTF [compound 44]
- binding to a human HLA-A type molecule (in words) [1]: experimentally confirmed to bind
- Binding Experiment Data ([1]; 10 amino acid peptides): 7.008

Sequence: FLKDHRISTF [compound 61]
- Kd ([2]; 10 amino acid peptides): 2.95 µM

Sequence: GAPTLPPAW [compound 6]
- binding to a human HLA-A type molecule (in words) [1]: experimentally confirmed to bind
- Binding Experiment Data ([1]; 9 amino acid peptides): 6.1588

Sequence: SSGCAFLSV [compound 21]
- Kd ([2]; 9 amino acid peptides): 5.07 µM

Sequence: TLPPAWQPF [compound 1]
- binding to a human HLA-A type molecule (in words) [1]: experimentally confirmed to bind
- Binding Experiment Data ([1]; 9 amino acid peptides): 8.2648

Sequence: TLPPAWQPF [compound 23]
- Kd ([2]; 9 amino acid peptides): 4.37 µM
